The target of one experiment is Methionine--tRNA ligase (Escherichia coli K-12, UniProt P00959). Briefly: Inhibitory concentration against Escherichia coli Met-tRNA synthetase.
A further experiment has as its target Isoleucine--tRNA ligase (Escherichia coli K-12, UniProt P00956). Briefly: Inhibitory concentration against Escherichia coli Ile-tRNA synthetase.

Methionine--tRNA ligase, sequence (P00959 whole entry): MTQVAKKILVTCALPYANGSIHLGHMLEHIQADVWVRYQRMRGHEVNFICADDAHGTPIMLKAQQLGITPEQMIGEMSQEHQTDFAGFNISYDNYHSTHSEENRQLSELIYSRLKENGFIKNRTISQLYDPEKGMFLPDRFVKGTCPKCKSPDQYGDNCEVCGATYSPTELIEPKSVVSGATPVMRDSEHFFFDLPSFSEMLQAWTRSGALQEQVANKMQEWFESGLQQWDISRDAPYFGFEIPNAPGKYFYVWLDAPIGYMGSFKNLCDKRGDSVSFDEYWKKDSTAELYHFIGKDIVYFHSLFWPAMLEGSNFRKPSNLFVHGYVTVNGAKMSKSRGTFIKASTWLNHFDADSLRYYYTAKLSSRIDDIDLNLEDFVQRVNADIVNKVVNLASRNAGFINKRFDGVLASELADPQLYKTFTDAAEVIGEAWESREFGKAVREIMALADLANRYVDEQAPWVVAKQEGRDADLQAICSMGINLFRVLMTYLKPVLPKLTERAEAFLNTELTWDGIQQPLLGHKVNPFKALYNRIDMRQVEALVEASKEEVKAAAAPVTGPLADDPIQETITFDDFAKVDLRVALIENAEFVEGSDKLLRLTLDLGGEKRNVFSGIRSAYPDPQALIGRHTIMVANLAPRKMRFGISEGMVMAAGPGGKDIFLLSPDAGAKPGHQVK
Isoleucine--tRNA ligase, sequence (P00956 whole entry): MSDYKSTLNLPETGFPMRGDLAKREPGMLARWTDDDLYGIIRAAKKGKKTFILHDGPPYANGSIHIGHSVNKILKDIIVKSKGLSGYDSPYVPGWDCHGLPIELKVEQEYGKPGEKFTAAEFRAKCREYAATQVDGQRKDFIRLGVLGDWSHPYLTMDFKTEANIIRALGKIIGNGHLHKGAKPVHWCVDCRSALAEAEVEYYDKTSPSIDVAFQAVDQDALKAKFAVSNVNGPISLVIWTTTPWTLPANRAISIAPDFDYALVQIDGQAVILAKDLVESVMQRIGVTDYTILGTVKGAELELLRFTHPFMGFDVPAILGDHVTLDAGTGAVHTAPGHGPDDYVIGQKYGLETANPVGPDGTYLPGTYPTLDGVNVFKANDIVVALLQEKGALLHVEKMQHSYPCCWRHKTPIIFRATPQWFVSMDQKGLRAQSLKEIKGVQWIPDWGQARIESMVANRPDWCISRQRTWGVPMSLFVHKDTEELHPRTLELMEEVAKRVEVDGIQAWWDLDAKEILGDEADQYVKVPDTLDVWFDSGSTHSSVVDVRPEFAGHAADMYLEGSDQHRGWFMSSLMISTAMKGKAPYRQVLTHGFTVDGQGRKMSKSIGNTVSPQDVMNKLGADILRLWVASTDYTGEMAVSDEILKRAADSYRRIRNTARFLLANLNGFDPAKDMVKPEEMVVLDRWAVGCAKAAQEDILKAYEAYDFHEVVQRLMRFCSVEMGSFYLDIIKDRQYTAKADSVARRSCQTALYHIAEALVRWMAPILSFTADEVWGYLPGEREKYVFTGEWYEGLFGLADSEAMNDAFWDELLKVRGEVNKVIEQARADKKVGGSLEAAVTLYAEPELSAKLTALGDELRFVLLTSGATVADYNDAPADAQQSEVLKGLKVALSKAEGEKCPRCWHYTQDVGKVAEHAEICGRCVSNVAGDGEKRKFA

Usually IC50 stands for the point on the concentration scale where inhibition reaches its midpoint. The low end stands for greater potency in that assay, the high end for weaker potency in that assay. As to `CSCC[C@H](N)C(=O)NS(=O)(=O)OC[C@H]1O[C@@H](n2cnc3c(N)ncnc32)C[C@@H]1O`, the IC50 on Methionine--tRNA ligase was determined as 110 µM.

For `CC[C@H](C)[C@H](N)C(=O)NS(=O)(=O)OC[C@@H]1CC[C@H](n2cnc3c(N)ncnc32)O1`, on Isoleucine--tRNA ligase, the IC50 came to 6.4 µM. The same measure, in the same setting: under `CC[C@H](C)[C@H](N)C(=O)NS(=O)(=O)OC[C@H]1O[C@@H](n2cnc3c(N)ncnc32)[C@H](O)[C@@H]1O` stands 0.265 µM; under `CC[C@H](C)[C@H](N)C(=O)NS(=O)(=O)O[C@H]1O[C@@H](n2cnc3c(N)ncnc32)C[C@@H]1O`, 280 µM. For `CSCC[C@H](N)C(=O)NS(=O)(=O)OC[C@H]1O[C@@H](n2cnc3c(N)ncnc32)[C@H](O)[C@@H]1O`, on Methionine--tRNA ligase, 0.083 µM corresponded to half-maximal inhibition (IC50). On Methionine--tRNA ligase, `CSCC[C@H](N)C(=O)NS(=O)(=O)OC[C@@H]1C[C@@H](O)[C@H](n2cnc3c(N)ncnc32)O1` showed an IC50 of 220 µM. Same read-out and setting: under `CSCC[C@H](N)C(=O)NS(=O)(=O)O[C@@H]1CC[C@H](n2cnc3c(N)nnnc32)O1` stands 0.383 µM. With `CC[C@H](C)[C@H](N)C(=O)NS(=O)(=O)OC[C@@H]1C[C@@H](O)[C@H](n2cnc3c(N)ncnc32)O1`, the midpoint of inhibition at Isoleucine--tRNA ligase, the IC50, lay at 35 µM.

Values taken from ChEMBL document CHEMBL1140252, “Deoxyribosyl analogues of methionyl and isoleucyl sulfamate adenylates as inhibitors of methionyl-tRNA and isoleucyl-tRNA synthetases” (Bioorg Med Chem Lett, 2005).
